Results on 17 compounds are retold here after PubChem BioAssay (NCI).

“And” between values parts separate entries of the source, which are not always exact repeats. Identical values can stand only once.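 Five compound concentrations were applied to cells in 96-well plates for 48 hours; endpoints were derived by simple linear interpolation of the resulting dose-response curve. GI50: concentration for 50% inhibition of growth. At the TGI there is no net growth.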

The subject of the first test is DU-145 prostate. The test can be described thus: inhibition of tumour cell growth, NCI panel, 48 h.
With `COc1cccc(/C=N/NC(=O)c2ccccc2Nc2ccnc(C(F)(F)F)c2)c1O`, the GI50 was 543 nM and the TGI is over 47 µM.
As to `Cc1ccc(CS/C(=C\c2ccc([N+](=O)[O-])cc2)C(=O)c2ccc(F)cc2)cc1`, the GI50 is 21100 nM and the TGI is over 100 µM.
Consider `CCOC(=O)CCc1cc(=O)oc2cc(O)cc(O)c12`, for which the TGI is over 100 µM.
Consider `COC(=O)c1cc2c3ccccc3[nH]c2c2ncccc12`, for which the GI50 was 47100 nM and the TGI was over 100 µM.
Consider `CNC(=O)OCc1c(COC(=O)NC)c(-c2ccc(Cl)c(Cl)c2)n2c1SCC2`, for which the TGI came out at 39.5 µM.
For the compound `C[C@]12CC[C@H](O)CC1=CC[C@@H]1[C@@H]2CC[C@]2(C)C(c3cccnc3)=CC[C@@H]12`, the GI50 was over 100000 nM and the TGI was over 100 µM.
In the same order, the values of `Cc1ccc2c(c1)C(=O)/C(=C/c1ncc([N+](=O)[O-])n1C)O2` are 2650 nM and 7.63 µM.
`CC1OC(n2cc(F)c(=O)[nH]c2=O)CCC1O` (stereo unspecified) came in with a TGI of over 100 µM.
For `O=C(NCCOCCOCCNc1cccc2c1C(=O)N(C1CCCNC1=O)C2=O)c1cc2c(o1)C(=O)c1ccccc1C2=O` (stereo unspecified), the GI50 is 1690 nM and the TGI came out at 3.11 µM.
In the same order, the values of `O=C(CN1CCOCC1)Nc1ccc(Cn2nnc3c2C(=O)c2nnn(Cc4ccc(NC(=O)CN5CCOCC5)cc4)c2C3=O)cc1` are 1380 nM and 2.7 µM.
In the same order, the values of `CCCCC/C(C=C(C#N)C#N)=C/c1ccccc1` are 5230 nM and 24.6 µM.
Consider `CC1CCC2(C(=O)O)CCC3(C)C(=CCC4C5(C)CC(O)C(O)C(C)(CO)C5C(O)CC43C)C2C1C` (stereo unspecified), for which the TGI is over 100 µM.
Same read-out and setting: with `COc1cnc2cc(C(=O)O)c3c([N+](=O)[O-])cccc3c2c1` the figure was over 100 µM.
With `Cc1ccc(S(=O)(=O)N(CCOc2ccc(/C(N)=N/Cl)cc2)CCOc2ccc(/C(N)=N\Cl)cc2)cc1`, the GI50 was 16100 nM and the TGI was determined as 48 µM.
In the same order, the values of `COc1ccc(C2=NN(C(=O)c3cc(OC)c(OC)c(OC)c3)C(c3ccc(C#N)cc3)C2)cc1OC` (stereo unspecified) are 2980 nM and over 39 µM.
Regarding `CCOc1cccc(/C=N/NC(=O)c2ccccc2Nc2ccnc(C(F)(F)F)c2)c1O`, the GI50 is 630 nM and the TGI was over 100 µM.
Take `CCOC(=O)/C=C(/C(=O)OCC)n1cc(Cl)c(=O)n(CC(=O)OCC)c1=O`: the TGI was 8.47 µM and 31.3 µM.

The test system of another test is HOP-92 NSCLC. The test can be described thus: inhibition of tumour cell growth, NCI panel, 48 h.
For `COc1cccc(/C=N/NC(=O)c2ccccc2Nc2ccnc(C(F)(F)F)c2)c1O`, the GI50 is 0.342 µM and the TGI is 21.5 µM.
For the compound `Cc1ccc(CS/C(=C\c2ccc([N+](=O)[O-])cc2)C(=O)c2ccc(F)cc2)cc1`, the GI50 is 14.1 µM and the TGI was found to be 41.3 µM.
Compound `CCOC(=O)CCc1cc(=O)oc2cc(O)cc(O)c12` had a TGI of over 100 µM.
On to `COC(=O)c1cc2c3ccccc3[nH]c2c2ncccc12`, for which the GI50 is over 100 µM and the TGI was over 100 µM.
`CNC(=O)OCc1c(COC(=O)NC)c(-c2ccc(Cl)c(Cl)c2)n2c1SCC2` showed a TGI of 17.6 µM.
For `C[C@]12CC[C@H](O)CC1=CC[C@@H]1[C@@H]2CC[C@]2(C)C(c3cccnc3)=CC[C@@H]12`, the GI50 is 8.7 µM and the TGI is over 55.9 µM.
In the same order, the values of `Cc1ccc2c(c1)C(=O)/C(=C/c1ncc([N+](=O)[O-])n1C)O2` are 2.24 µM and over 19.8 µM.
In the case of `CC1OC(n2cc(F)c(=O)[nH]c2=O)CCC1O` (stereo unspecified), the TGI was over 100 µM.
Turning to `O=C(NCCOCCOCCNc1cccc2c1C(=O)N(C1CCCNC1=O)C2=O)c1cc2c(o1)C(=O)c1ccccc1C2=O` (stereo unspecified), the GI50 is 3.31 µM and the TGI was 13.6 µM.
On to `O=C(CN1CCOCC1)Nc1ccc(Cn2nnc3c2C(=O)c2nnn(Cc4ccc(NC(=O)CN5CCOCC5)cc4)c2C3=O)cc1`, for which the GI50 is 0.822 µM and the TGI was 2.34 µM.
In the case of `CCCCC/C(C=C(C#N)C#N)=C/c1ccccc1`, the GI50 was 5.82 µM and the TGI is 21.8 µM.
`CC1CCC2(C(=O)O)CCC3(C)C(=CCC4C5(C)CC(O)C(O)C(C)(CO)C5C(O)CC43C)C2C1C` (stereo unspecified): the TGI is 46.3 µM.
The same measure, in the same setting: with `COc1cnc2cc(C(=O)O)c3c([N+](=O)[O-])cccc3c2c1` the figure was over 100 µM.
Take `Cc1ccc(S(=O)(=O)N(CCOc2ccc(/C(N)=N/Cl)cc2)CCOc2ccc(/C(N)=N\Cl)cc2)cc1`: the GI50 was 17.2 µM and the TGI is 89.3 µM.
In the same order, the values of `COc1ccc(C2=NN(C(=O)c3cc(OC)c(OC)c(OC)c3)C(c3ccc(C#N)cc3)C2)cc1OC` (stereo unspecified) are 0.113 µM and 0.792 µM.
In the same order, the values of `CCOc1cccc(/C=N/NC(=O)c2ccccc2Nc2ccnc(C(F)(F)F)c2)c1O` are 0.246 µM and 19.7 µM.
Take `CCOC(=O)/C=C(/C(=O)OCC)n1cc(Cl)c(=O)n(CC(=O)OCC)c1=O`: the TGI stood at 9.3 µM.

The test system of another test is K-562 leukemia. The test can be described thus: inhibition of tumour cell growth, NCI panel, 48 h.
On to `COc1cccc(/C=N/NC(=O)c2ccccc2Nc2ccnc(C(F)(F)F)c2)c1O`, for which the GI50 was 369 nM and the TGI worked out at 12.3 µM.
In the same order, the values of `Cc1ccc(CS/C(=C\c2ccc([N+](=O)[O-])cc2)C(=O)c2ccc(F)cc2)cc1` are 3210 nM and over 100 µM.
`CCOC(=O)CCc1cc(=O)oc2cc(O)cc(O)c12` gave a TGI of over 100 µM.
With `COC(=O)c1cc2c3ccccc3[nH]c2c2ncccc12`, the GI50 was 75300 nM and the TGI was over 100 µM.
`CNC(=O)OCc1c(COC(=O)NC)c(-c2ccc(Cl)c(Cl)c2)n2c1SCC2` returned a TGI of 52 µM.
In the case of `C[C@]12CC[C@H](O)CC1=CC[C@@H]1[C@@H]2CC[C@]2(C)C(c3cccnc3)=CC[C@@H]12`, the GI50 is 3990 nM and the TGI was over 100 µM.
In the same order, the values of `Cc1ccc2c(c1)C(=O)/C(=C/c1ncc([N+](=O)[O-])n1C)O2` are 598 nM and over 24.9 µM.
With `CC1OC(n2cc(F)c(=O)[nH]c2=O)CCC1O` (stereo unspecified), the TGI is over 100 µM.
As for `O=C(NCCOCCOCCNc1cccc2c1C(=O)N(C1CCCNC1=O)C2=O)c1cc2c(o1)C(=O)c1ccccc1C2=O` (stereo unspecified), the GI50 is 2750 nM and the TGI amounted to 11.1 µM.
